# “And” between values parts separate entries of the source, which are not always exact repeats. Identical values can stand only once. “Also recorded” adds a separate entry of the source. Like-named read-outs stand apart in the source and are kept apart here.
# Assays:
# stripped hemoglobin = stripped hemoglobin (Homo sapiens, UniProt P68871); conditions: pH 7.4, cited from earlier work
# human RBCs = conditions: large-volume continuous-flow electroporation; cited from earlier work
# [1] = tested on: human RBCs in whole blood; assay: P50 of RBCs after in vitro incubation of human whole blood with effector (Hemox Analyzer); conditions: for P50 Increase % / P50 mm HG EFF:WB: EFF:WB 1:1.5; for lysis of the RBC: physiological or nearly physiological osmotic pressure, in vitro whole blood; for lysis of red blood cells (hemolysis): tested on whole blood
# [2] = tested on: mouse RBCs in whole blood; assay: P50 of RBCs after in vitro incubation of mouse whole blood with effector (Hemox Analyzer); assay type: cell-based; conditions: for P50 Increase %: mouse WB
# [3] = biological target: T1, C57B1/6 mice free hemoglobin (Mus musculus, UniProt P02088); assay: P50 of mouse free hemoglobin after incubation with KF effectors; assay type: biochemical; conditions: effector 2.5 mM : mouse hemoglobin 2.5 mM, 1:1; pH 7.0
# T1 construct: P50 values of C57B1/6 mice free hemoglobin after incubation with; from tissue; host or cells: blood of C57Bl/6 mice (inferred; the preparation is not described)
# Method: The pH of the compound solutions was adjusted to approximately 7.1 and effector solution (2.5 mM) and mouse hemoglobin (2.5 mM) were mixed at 1:1 ratio. The osmolarity was adjusted to 218-310 mOsM. Effectors and whole blood (WB) at 1:1.5 were incubated at 37° C. for 60 minutes.
# They were tested for P50 right shift with mouse hemoglobin. The pH was adjusted to approximately 7.0 and effector solution (2.5 mM) and mouse hemoglobin (2.5 mM) were mixed at 1:1 ratio. P50 values were measured as before.
# mice RBC = assay type: in vivo; conditions: ip 30, 45 and 60 mM; three hours after injection
# Method: Three hours after injection, samples of blood were taken for P50 measurements. […] We have observed the shift of the P50 values in the blood from the injected animals over 3 days.
# The P50 shift of RBC is similar to iv injections at concentrations of 30 and 45 mM.
# C57B1/6 mice [4] = tested on: C57B1/6 mice
# Free Hemoglobin = Free Hemoglobin (Homo sapiens, UniProt P68871); assay: P50 of free hemoglobin with effector (Table 1); assay type: biochemical; conditions: ratio 1:1 (2.5 mM:2.5 mM), pH 7.1-7.2, 37° C.
# Text: The sample chamger contained:
# C57B1/6 mice [5] = assay: Tolerability and pharmacodynamics of SV184 and SV192 after iv injection; assay type: in vivo, mouse; conditions: for toxicity upon iv injection in mice: 30 mM effector solution; for shift of P50 in blood of surviving mice: less than 200 μL iv, blood taken 4 and 24 hours after injection
# Method: The tolerability and pharmacodynamics of the compounds SV184 and SV192 were tested in a small number of C57B1/6 mice. Mice receiving the whole volume of 200 μL of (30 mM) effector solution died immediately after injection or during injection (injection time 10-20 min). Eight mice receiving less than 200 μL of the compound solution survived. These mice were fast breathing and shaking, but recovered after 4 hours. […] Therefore, new derivatives were synthesized in our labs.
# C57B1/6 mice [6] = assay: as above; assay type: in vivo, mouse
# [7] = EFF:WB 1:0.375, 220 mOsM, 30 mM
# [8] = iv 200 μL of 30 mM, 1 mouse injected
# [9] = EFF:WB 1:0.375, 224 mOsM, 30 mM
# Chain of stripped hemoglobin (P69905 2-142 partner limits assumed): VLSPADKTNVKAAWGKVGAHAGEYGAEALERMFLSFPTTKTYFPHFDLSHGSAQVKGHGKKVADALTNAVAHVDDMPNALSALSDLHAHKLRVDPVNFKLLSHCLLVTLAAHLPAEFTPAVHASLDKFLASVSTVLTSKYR
# Chain of stripped hemoglobin (P68871 2-147 limits assumed): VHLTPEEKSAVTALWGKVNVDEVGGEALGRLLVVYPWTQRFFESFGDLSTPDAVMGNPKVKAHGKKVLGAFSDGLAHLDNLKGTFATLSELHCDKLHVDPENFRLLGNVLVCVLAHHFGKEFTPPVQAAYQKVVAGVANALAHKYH
# T1 sequence (P01942 2-142 partner limits assumed): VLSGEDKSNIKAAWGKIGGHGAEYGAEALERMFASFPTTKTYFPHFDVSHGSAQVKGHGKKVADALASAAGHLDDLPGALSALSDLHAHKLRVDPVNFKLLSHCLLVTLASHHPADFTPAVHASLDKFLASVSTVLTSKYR
# T1 sequence (P02088 2-147 limits assumed): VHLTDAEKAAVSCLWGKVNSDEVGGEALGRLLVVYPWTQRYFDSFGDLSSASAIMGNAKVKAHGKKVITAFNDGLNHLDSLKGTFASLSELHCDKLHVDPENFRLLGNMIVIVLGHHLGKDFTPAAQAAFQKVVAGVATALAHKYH
# Chain of Free Hemoglobin (P69905 2-142 partner limits assumed): as the sequence (P69905 2-142 partner limits assumed) above
# Chain of Free Hemoglobin (P68871 2-147 limits assumed): as the sequence (P68871 2-147 limits assumed) above
compound,measurement,setting,value
"O=C(O)C(COP(=O)(O)O)OP(=O)(O)O (centres unmarked) [2,3-Diphosphoglycerate]",O2 half-saturation pressure P(O2)(½) of stripped hemoglobin,"stripped hemoglobin; 25 C, without effector 4.3",12.0 mm Hg
same,O2 half-saturation pressure P(O2)(½) of stripped hemoglobin,"stripped hemoglobin; 37 C, without effector 9.3",23.7 mm Hg
"O=P(O)(O)O[C@H]1[C@H](OP(=O)(O)O)[C@@H](OP(=O)(O)O)[C@H](OP(=O)(O)O)[C@@H](OP(=O)(O)O)[C@H]1OP(=O)(O)O [IHP, inositol hexaphosphate]",O2 half-saturation pressure P(O2)(½) of stripped hemoglobin,"stripped hemoglobin; 25 C, without effector 4.3",48.4 mm Hg
same,O2 half-saturation pressure P(O2)(½) of stripped hemoglobin,"stripped hemoglobin; 37 C, without effector 9.3",96.4 mm Hg
same,P50 of human RBCs with encapsulated IHP,human RBCs,approximately 50 torr
CC(C)CCCC(C)C1CCC2C3CC=C4CC(OC(=O)OP(=O)(O)OC5C(OP(=O)(O)O)C(OP(=O)(O)O)C(OP(=O)(O)O)C(OP(=O)(O)O)C5OP(=O)(O)O)CCC4(C)C3CCC12C.CN(C)C1CCCCC1.CN(C)C1CCCCC1.CN(C)C1CCCCC1.CN(C)C1CCCCC1.CN(C)C1CCCCC1.CN(C)C1CCCCC1.CN(C)C1CCCCC1.CN(C)C1CCCCC1 (centres unmarked) [SV192bis],P50 Increase %,"[1]; human WB, 220 mOsM, 30 mM",6%
same,P50 mm HG EFF:WB,"[1]; human WB, 220 mOsM, 30 mM",26.6 mm Hg
same,P50 Increase %,"[1]; human WB, 272 mOsM, 30 mM",6%
same,P50 mm HG EFF:WB,"[1]; human WB, 272 mOsM, 30 mM",24 mm Hg
same,P50 Increase %,"[1]; human WB, 306 mOsM, 30 mM",13%
same,P50 mm HG EFF:WB,"[1]; human WB, 306 mOsM, 30 mM",28.3 mm Hg
same,lysis of the RBC,[1],no lysis
"Inositol hexaphosphate-cholesteroloxycarbonyl, hepta N,N-dimethyl-cyclohexylammonium salt [KF16]",P50 mm Hg EFF:WB,"[2]; 1:1.5, 283 mOsM, pH 7.1, 30 mM, 60 min 37° C.",36.14 mm Hg
same,P50 Increase %,[3],90%
same,P50 mm Hg EFF/fHb,[3],52.17 mm Hg
same,right shift of P50 after ip injection,mice RBC,strong right shift of P50
same,P50 Increase %,"C57B1/6 mice [4]; iv 200 μL of 60 mM, 2 h after injection",> 10%
same,right shift in P50 value at lower concentrations,"C57B1/6 mice [4]; iv, concentrations lower than 60 mM",6-9%
CC(C)CCCC(C)C1CCC2C3CC=C4CC(OC(=O)OP(=O)(O)OC5C(OP(=O)(O)O)C(OP(=O)(O)O)C(OP(=O)(O)O)C(OP(=O)(O)O)C5OP(=O)(O)O)CCC4(C)C3CCC12C.CN(C)C1CCCCC1.CN(C)C1CCCCC1.CN(C)C1CCCCC1.CN(C)C1CCCCC1.CN(C)C1CCCCC1.CN(C)C1CCCCC1.CN(C)C1CCCCC1.CN(C)C1CCCCC1 (centres unmarked) [SV192ter],P50 mm HG EFF:WB,[2]; [7],46.4 mm Hg
same,P50 mm HG EFF:WB,"[2]; EFF:WB 1:1.5, 264 mOsM, 15 mM",42.2 mm Hg
same,P50 mm HG EFF:WB,"[2]; EFF:WB 1:1.5, 276 mOsM, 30 mM",43.5 mm Hg
same,P50 mm HG EFF:WB,"[2]; EFF:WB 1:1.5, 283 mOsM, 5 mM",43.1 mm Hg
same,P50 mm HG EFF:WB,"[2]; EFF:WB 1:1.5, 314 mOsM, 60 mM",43.1 mm Hg
same,P50 mm HG EFF:WB,"[2]; EFF:WB 1:1.5, 320 mOsM, 30 mM",41.4 mm Hg and 43.4 mm Hg and 41.9 mm Hg
same,P50 mm HG EFF:WB,"[2]; EFF:WB 1:1.5, 320 mOsM, 50 mM",42.6 mm Hg
same,P50 Increase %,[2]; [7],8%
same,P50 Increase %,"[2]; EFF:WB 1:1.5, 264 mOsM, 15 mM",2%
same,P50 Increase %,"[2]; EFF:WB 1:1.5, 276 mOsM, 30 mM",5%
same,P50 Increase %,"[2]; EFF:WB 1:1.5, 283 mOsM, 5 mM",7%
same,P50 Increase %,"[2]; EFF:WB 1:1.5, 314 mOsM, 60 mM",4%
same,P50 Increase %,"[2]; EFF:WB 1:1.5, 320 mOsM, 30 mM",8% and 13% and 9%
same,P50 Increase %,"[2]; EFF:WB 1:1.5, 320 mOsM, 50 mM",5%
same,P50 Increase %,"[1]; human WB, 202 mOsM, 30 mM",5%
same,P50 mm HG EFF:WB,"[1]; human WB, 202 mOsM, 30 mM",26.3 mm Hg
same,P50 Increase %,"[1]; human WB, 258 mOsM, 30 mM",2%
same,P50 mm HG EFF:WB,"[1]; human WB, 258 mOsM, 30 mM",25.6 mm Hg
same,P50 Increase %,"[1]; human WB, 274 mOsM, 30 mM",3%
same,P50 mm HG EFF:WB,"[1]; human WB, 274 mOsM, 30 mM",26.8 mm Hg
same,P50 Increase %,"[1]; human WB, 303 mOsM, 30 mM",4%
same,P50 mm HG EFF:WB,"[1]; human WB, 303 mOsM, 30 mM",26.2 mm Hg
same,lysis of the RBC,[1],no lysis
"CC(C)CCCC(C)C1CCC2C3CC=C4CC(OC(=O)OP(=O)(O)OC5C(OP(=O)(O)O)C(OP(=O)(O)O)C(OP(=O)(O)O)C(OP(=O)(O)O)C5OP(=O)(O)O)CCC4(C)C3CCC12C.CN(C)C1CCCCC1.CN(C)C1CCCCC1.CN(C)C1CCCCC1.CN(C)C1CCCCC1.CN(C)C1CCCCC1.CN(C)C1CCCCC1.CN(C)C1CCCCC1.CN(C)C1CCCCC1 (centres unmarked) [SV192, Inositol hexaphosphate-cholesteroloxycarbonyl, octa N,N-dimethyl-cyclohexylammonium salt]",P50 mm Hg EFF:WB (fHb),Free Hemoglobin,32.5 mm Hg
same,Number of mice died,C57B1/6 mice [5]; [8],1
same,toxicity upon iv injection in mice,C57B1/6 mice [5],high level of toxicity
same,shift of P50 in blood of surviving mice,C57B1/6 mice [5],did not show a significant shift of P50
same,Shift of P50 %,C57B1/6 mice [6]; iv 135 μL of 30 nM,<3%
same,Number of mice died,"C57B1/6 mice [6]; iv 135 μL of 30 mM, 2 mice injected",0
same,Number of mice died,"C57B1/6 mice [6]; iv 165 μL of 30 mM, 2 mice injected",2
same,lysis of RBC on incubation,"[1]; human WB, EFF:WB 1:0.375, 224 mOsM, 30 mM",Lyses; also recorded: lysis
same,P50 Increase %,"[1]; human WB, 224 mOsM, 30 mM",26%
same,P50 mm HG EFF:WB,"[1]; human WB, 224 mOsM, 30 mM",29.5 mm Hg
same,P50 Increase %,"[1]; human WB, 310 mOsM, 30 mM",25%
same,P50 mm HG EFF:WB,"[1]; human WB, 310 mOsM, 30 mM",30 mm Hg
same,lysis of the RBC,[1],no lysis
same,lysis of red blood cells (hemolysis),[1]; listed as 2b,did not trigger hemolysis
same,lysis of red blood cells (hemolysis),"[1]; listed as IHP-cholesterol derivative with N,N-dimethyl-cyclohexylammonium countercations",without any detectable cell lysis
"CC(C)CCCC(C)C1CCC2C3CC=C4CC(OC(=O)OP(=O)([O-])OC5C(OP(=O)([O-])[O-])C(OP(=O)([O-])[O-])C(OP(=O)([O-])[O-])C(OP(=O)([O-])[O-])C5OP(=O)([O-])[O-])CCC4(C)C3CCC12C.[Na+].[Na+].[Na+].[Na+].[Na+].[Na+].[Na+].[Na+].[Na+].[Na+].[Na+] (centres unmarked) [SV184, Inositol hexaphosphate-cholesteroloxycarbonyl, undecanyl sod ium salt]",P50 mm HG EFF:WB,[2]; [9],44.3 mm Hg
same,P50 mm HG EFF:WB,"[2]; EFF:WB 1:1.5, 310 mOsM, 30 mM",41.8 mm Hg
same,P50 Increase %,[2]; [9],15%
same,P50 Increase %,"[2]; EFF:WB 1:1.5, 310 mOsM, 30 mM",9%
same,"P50 (FIG. 2, Curve B)","C57B1/6 mice [5]; IV, WB mouse, 1 h, saline control P50=33.3",41.0
same,% increase of P50 (FIG. 2),"C57B1/6 mice [5]; IV, WB mouse, 1 h, versus saline control",23.12%
same,toxicity upon iv injection in mice,C57B1/6 mice [5],high level of toxicity
same,shift of P50 in blood of surviving mice,C57B1/6 mice [5],did not show a significant shift of P50
same,Shift of P50 %,C57B1/6 mice [6]; iv 150 μL of 30 nM,<5%
same,Number of mice died,"C57B1/6 mice [6]; iv 150 μL of 30 mM, 4 mice injected",0
same,Number of mice died,C57B1/6 mice [6]; [8],1
same,P50 Increase %,"[1]; human WB, 232 mOsM, 30 mM",16%
same,P50 mm HG EFF:WB,"[1]; human WB, 232 mOsM, 30 mM",30.4 mm Hg
same,P50 mm HG EFF:WB,"[1]; human WB, 310 mOsM, 30 mM",30 mm Hg
"CC(C)CCCC(C)C1CCC2C3CC=C4CC(OC(=O)OP(=O)(O)OC5C(OP(=O)(O)O)C(OP(=O)(O)O)C(OP(=O)(O)O)C(OP(=O)(O)O)C5OP(=O)(O)O)CCC4(C)C3CCC12C.CCCCN(CCCC)CCCC.CCCCN(CCCC)CCCC.CCCCN(CCCC)CCCC.CCCCN(CCCC)CCCC.CCCCN(CCCC)CCCC.CCCCN(CCCC)CCCC (centres unmarked) [Effector 2a, Inositol hexaphosphate-cholesteroloxycarbonyl, hexa tributyl-ammonium salt]",lysis of red blood cells (hemolysis),[1],triggered the lysis of the red blood cells

# — US20040072801A1, “Sterols bearing pendant allosteric effectors of hemoglobin, and uses thereof” (priority 2002, published 2004)
